A word on the IC50: it is the midpoint of a concentration-inhibition curve.

The results in this text go back to patent publication EP1077967B1, “BIPHENYL OXO-ACETIC ACIDS USEFUL IN THE TREATMENT OF INSULIN RESISTANCE AND HYPERGLYCEMIA” (Wyeth, priority 1998, dated 1999).

Structures can show the parent of a compound that is named as a salt. Where two headings read alike, the source gives them in different places.

The test system of test [1] is rat hepatic microsomal PTPases. Put plainly: Inhibition of tri-phosphorylated insulin receptor dodecaphosphopeptide dephosphorylation by rat hepatic PTPases (malachite green). As to conditions: rat liver microsomal fraction; for % Change from Control: PTPase activity, compound at 50 µM; for IC50: % Change from Control. In kind it is biochemical.
Another test addresses T1, Human recombinant PTP1B (Homo sapiens, UniProt P18031).
T1 construct: made in house
T1 sequence (P18031 1-435): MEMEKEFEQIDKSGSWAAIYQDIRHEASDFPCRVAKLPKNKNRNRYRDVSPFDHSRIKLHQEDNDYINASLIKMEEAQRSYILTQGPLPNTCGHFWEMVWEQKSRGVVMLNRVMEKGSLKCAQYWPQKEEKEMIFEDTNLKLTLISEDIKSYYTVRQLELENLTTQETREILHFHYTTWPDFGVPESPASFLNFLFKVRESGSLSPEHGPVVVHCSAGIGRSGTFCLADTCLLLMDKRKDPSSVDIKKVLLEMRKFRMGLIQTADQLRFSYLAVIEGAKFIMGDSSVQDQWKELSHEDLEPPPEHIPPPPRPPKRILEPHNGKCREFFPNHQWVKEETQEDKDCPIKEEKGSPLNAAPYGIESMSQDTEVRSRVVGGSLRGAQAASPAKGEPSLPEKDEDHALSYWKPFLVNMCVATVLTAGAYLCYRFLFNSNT
Put plainly: Inhibition of tri-phosphorylated insulin receptor dodecaphosphopeptide dephosphorylation by hPTP1B (malachite green). Format: biochemical. As to conditions: for IC50: recombinant PTP1B, dodecaphosphopeptide substrate.

In the next test the test system is diabetic (ob/ob) mice. Put plainly: Blood glucose lowering in diabetic (ob/ob) mice. Format: in vivo. As to conditions: Mus musculus, po, cells marked a = no significant activity (p<0.05) at this dose.
Where [2] appears, read: read-out: % Change Insulin from Vehicle.
[3] abbreviates: plasma glucose, read-out: % Change Glucose from Vehicle.

For the compound `O=C(O)[C@@H](Cc1ccccc1)Oc1ccc(-c2ccc(-c3c(Cc4ccccc4)oc4ccccc34)cc2)cc1` [Example 15, (2R)-2-[4'-(2-Benzyl-benzofuran-3-yl)-biphenyl-4-yloxy]-3-phenyl-propionic acid], the “% Change from Control” value in test [1] is -59%. Further, the IC50 at Human recombinant PTP1B is 348 nM. The change in vivo at 100 mg/kg was 4.1% in the test on diabetic (ob/ob) mice (setting [2]) and -35% in the test on diabetic (ob/ob) mice (setting [3]).
Regarding `O=C(O)[C@@H](Cc1ccccc1)Oc1ccc(-c2ccc(-c3c(Cc4ccc(O)c(O)c4)sc4ccccc34)cc2)cc1` [Example 28, (2R)-2-{4'-[2-(3,4-Dihydroxy-benzyl)-benzo[b]thiophene-3-yl)-biphenyl-4-yloxy]-3-phenyl-propionic acid], the IC50 in test [1] came out at 20600 nM; at Human recombinant PTP1B, 122 nM. For the same compound, in the test with diabetic (ob/ob) mice (setting [3]), the change in vivo at 25 mg/kg was -20%.
For `O=C(O)C(Cc1ccccc1)Oc1ccc(-c2ccc(-c3c(Cc4ccccc4)sc4ccccc34)cc2)cc1` (stereo not shown) [Example 13, 2-[4'-(2-Benzyl-benzo[b]thiophen-3-yl)-biphenyl-4-yloxy]-3-phenyl-propionic acid], the “% Change from Control” value in test [1] is -50%. Also, the change in vivo at 100 mg/kg with diabetic (ob/ob) mice (setting [2]) was 5%; in the test with diabetic (ob/ob) mice (setting [3]), -36.7%.
On to `O=C(O)[C@H](Cc1ccccc1)Oc1ccc(-c2ccc(-c3c(Cc4ccccc4)oc4ccccc34)cc2)cc1` [Example 1, (2S)-2-[4'-(2-Benzyl-benzofuran-3-yl)-biphenyl-4-yloxy]-3-phenyl-propionic acid], for which the “% Change from Control” value in test [1] was -53%. Besides, the IC50 at Human recombinant PTP1B turned out to be 322 nM. Besides, the change in vivo at 100 mg/kg in the test with diabetic (ob/ob) mice (setting [2]) is 17%; in the test on diabetic (ob/ob) mice (setting [3]), -40.3%.
In the case of `CCCCc1oc2ccccc2c1-c1ccc(-c2ccc(OC(Cc3ccccc3)C(=O)O)cc2)cc1` (stereo not shown) [Example 10, 2-[4'-(2-Butyl-benzofuran-3-yl)-biphenyl-4-yloxy]-3-phenyl-propionic acid], the “% Change from Control” value in test [1] was -72%. The IC50 on Human recombinant PTP1B was found to be 440 nM. For the same compound, the change in vivo at 100 mg/kg in the test on diabetic (ob/ob) mice (setting [2]) was -51.9%; in the test with diabetic (ob/ob) mice (setting [3]) it was -34.2%.
For `COc1ccc(-c2cc(-c3ccc(-c4c(Cc5ccccc5)sc5ccccc45)cc3)cc(-c3ccc(OC)cc3)c2OCC(=O)O)cc1` [Example 2], the figures for the IC50 (in test [1]; on Human recombinant PTP1B) were 28400 nM and 25 nM, respectively. Also, the change in vivo at 25 mg/kg in the test with diabetic (ob/ob) mice (setting [2]) is 11.2%; with diabetic (ob/ob) mice (setting [3]) it was -25.5%.
With `O=C(O)C(Cc1ccccc1)Oc1ccc(-c2ccc(-c3c(Cc4ccccc4)oc4ccccc34)cc2)cc1` (stereo not shown) [Example 11, 2-[4'-(2-Benzyl-benzofuran-3-yl)-biphenyl-4-yloxy]-3-phenyl-propionic acid], the “% Change from Control” value in test [1] is recorded as -61%. In addition, the IC50 at Human recombinant PTP1B was 270 nM. Further, the change in vivo at 100 mg/kg in the test with diabetic (ob/ob) mice (setting [2]) is -44.9%; in the test with diabetic (ob/ob) mice (setting [3]), -40.4%.
With `COc1ccc(-c2cc(-c3ccc(-c4c(Cc5ccccc5)sc5ccccc45)cc3)cc(Br)c2OCC(=O)O)cc1` [Example 3], the IC50 in test [1] came to 29900 nM; on Human recombinant PTP1B it was 29 nM. The change in vivo at 25 mg/kg in the test on diabetic (ob/ob) mice (setting [2]) is 23.5%; with diabetic (ob/ob) mice (setting [3]) it was -29.9%.
On to `CC(Cc1ccccc1)(Oc1ccc(-c2ccc(-c3c(Cc4ccccc4)oc4ccccc34)cc2)cc1)C(=O)O` (stereo not shown) [Example 24, 2-[4'-(2-Benzyl-benzofuran-3-yl)-biphenyl-4-yloxy]-2-methyl-3-phenyl-propionic acid], for which, on Human recombinant PTP1B, the IC50 amounted to 293 nM. Besides, the change in vivo at 25 mg/kg in the test with diabetic (ob/ob) mice (setting [3]) was -30.5%.
On to `O=C(O)CCCOc1ccc(-c2ccc(-c3c(Cc4ccccc4)sc4ccccc34)cc2)cc1Br` [Example 42], for which, on Human recombinant PTP1B, the IC50 is 178 nM. Further, the values for the change in vivo at 25 mg/kg in the test on diabetic (ob/ob) mice (setting [2]) and in the test with diabetic (ob/ob) mice (setting [3]) were 9.9% and -10.6%, respectively.
For the compound `C[C@@H](Oc1ccc(-c2ccc(-c3c(Cc4ccccc4)oc4ccccc34)cc2)cc1)C(=O)O` [Example 17, (2R)-2-[4'-(2-Benzyl-benzofuran-3-yl)-biphenyl-4-yloxy]-propionic acid], the “% Change from Control” value in test [1] is on record as -63%. At Human recombinant PTP1B, the IC50 was 1320 nM. Further, the change in vivo at 100 mg/kg is -94.4% with diabetic (ob/ob) mice (setting [2]) and 13.7% in the test with diabetic (ob/ob) mice (setting [3]).
`CCCCc1sc2ccccc2c1-c1ccc(-c2ccc(OC(Cc3ccccc3)C(=O)O)cc2)cc1` (stereo not shown) [Example 12, 2-[4'-(2-Butyl-benzo[b]thiopen-3-yl)-biphenyl-4-yloxy]-3-phenyl-propionic acid]: in test [1], the “% Change from Control” value is reported as -50%. Also, the IC50 at Human recombinant PTP1B amounted to 176 nM. The values for the change in vivo at 100 mg/kg in the test with diabetic (ob/ob) mice (setting [2]) and in the test with diabetic (ob/ob) mice (setting [3]) were -15.8% and -27.5%, respectively.
In the case of `O=C(O)[C@H](Cc1ccccc1)Oc1ccc(-c2ccc(-c3c(Cc4ccccc4)oc4ccccc34)cc2)cc1` [Example 16, (2S)-2-[4'-(2-Benzyl-benzofuran-3-yl)-biphenyl-4-yloxy]-3-phenyl-propionic acid tromethamine salt], the “% Change from Control” value in test [1] is -53%. Also, the IC50 at Human recombinant PTP1B came out at 397 nM.
For `O=C(O)[C@H](Oc1ccc(-c2ccc(-c3c(Cc4ccccc4)oc4ccccc34)cc2)cc1)c1ccccc1` [Example 18, (2R)-2-[4'-(2-Benzyl-benzofuran-3-yl)-biphenyl-4-yloxy]-phenyl-acetic acid], the IC50 is 24200 nM in test [1] and 401 nM on Human recombinant PTP1B.
Turning to `O=C(O)[C@@H](Cc1ccccc1)Oc1ccc(-c2ccc(-c3c(Cc4ccc(F)cc4)sc4ccccc34)cc2)cc1` [Example 19], the concentration for half-maximal inhibition (IC50) is 21400 nM in test [1] and 123 nM on Human recombinant PTP1B. Further, the values for the change in vivo at 100 mg/kg with diabetic (ob/ob) mice (setting [2]) and in the test on diabetic (ob/ob) mice (setting [3]) were 1.1% and -27.7%, respectively.
On to `CC1(C)Oc2ccc(Cc3sc4ccccc4c3-c3ccc(-c4ccc(O[C@H](Cc5ccccc5)C(=O)O)cc4)cc3)cc2O1` [Example 27, (2R) 2-{4'-[2-(2,2-Dimethyl-benzo[1,3]dioxol-5-ylmethyl)-benzo[b]thiophene-3-yl)-biphenyl-4-yloxy]-3-phenyl-propionic acid], for which the results for the IC50 (in test [1]; at Human recombinant PTP1B) were 24900 nM and 77 nM, respectively.
For the compound `O=C(c1ccccc1)c1oc2ccccc2c1-c1ccc(-c2ccc(OC(Cc3ccccc3)C(=O)O)cc2)cc1` (stereo not shown) [Example 14], the “% Change from Control” value in test [1] is -55%. In addition, in the test on diabetic (ob/ob) mice (setting [3]), the change in vivo at 100 mg/kg is -39%.
In the case of `O=C(O)[C@@H](CCN1C(=O)c2ccccc2C1=O)Oc1ccc(-c2ccc(-c3c(Cc4ccccc4)oc4ccccc34)cc2)cc1` [Example 48, (2R)-2-[4'-(2-benzyl-benzofuran-3-yl)-biphenyl-4-yloxy]-4-(1,3-dioxo-1,3-dihydro-isoindol-2-yl)-butyric acid], the IC50 at Human recombinant PTP1B turned out to be 341 nM. The change in vivo at 25 mg/kg with diabetic (ob/ob) mice (setting [2]) is -30%; in the test on diabetic (ob/ob) mice (setting [3]), 4.7%.
As for `O=C(O)C(Cc1ccccc1)Oc1ccc(-c2ccc(-c3coc4ccccc34)cc2)cc1` (stereo not shown) [Example 5, 2-(4'-Benzofuran-3-yl-biphenyl-4-yloxy)-3-phenyl-propionic acid], the “% Change from Control” value in test [1] is on record as -70%. For the same compound, the “change of PTP1B activity (percent of phosphatase control)” value on Human recombinant PTP1B (compound at 2.5 uM) was -47 (2.5 uM).
For `COc1ccc(-c2cc(-c3ccc(-c4c(Cc5ccccc5)oc5ccccc45)cc3)ccc2O[C@@H](Cc2ccccc2)C(=O)O)cc1` [Example 55, (2S)-2-[4-(2-benzyl-benzofuran-3-yl)-4"-methoxy-[1,1';3',1'']terphenyl-4'-yloxy]-3-phenyl-propionic acid], at Human recombinant PTP1B, the IC50 came out at 43 nM. Also, the change in vivo at 25 mg/kg is 35.4% with diabetic (ob/ob) mice (setting [2]) and -13.6% in the test with diabetic (ob/ob) mice (setting [3]).
Regarding `COc1ccc(Cc2sc3ccccc3c2-c2ccc(-c3ccc(O[C@H](Cc4ccccc4)C(=O)O)cc3)cc2)cc1OC` [Example 25, (2R)-2-{4'-[2-(3,4-Dimethoxy-benzyl)-benzo[b]thiophen-3-yl]-biphenyl-4-yloxy}-3-phenyl-propionic acid], the IC50 in test [1] was 17900 nM; on Human recombinant PTP1B, 213 nM.
For `COc1ccc(-c2cc(-c3ccc(-c4c(Cc5ccccc5)sc5ccccc45)cc3)ccc2O[C@H](Cc2ccccc2)C(=O)O)cc1` [Example 38, (2R)-2-[4-(2-Benzyl-benzo[b]thiophene-3-yl)-4"-methoxy-[1,1';3',1"]terphenyl-4'-yloxy]-3-phenvl-propionic acid], in that order: 19300 nM and 53 nM.
`O=C(O)[C@@H](Cc1ccccc1)Oc1ccc(-c2ccc(-c3c(C(O)c4ccccc4)oc4ccccc34)cc2)cc1` (stereo partly drawn) [Example 22, (2R)-2-{4'-[2-(Hydroxy-phenyl-methyl)-benzofuran-3-yl)-biphenyl-4-yloxy]-3-phenyl-propionic acid]: in test [1], the “% Change from Control” value is given as -55%. In addition, the IC50 on Human recombinant PTP1B was 118 nM.
Regarding `CCCCc1oc2ccccc2c1-c1ccc(-c2ccc(O)cc2)cc1` [Example 8, 4'-(2-Butyl-benzofuran-3-yl)-biphenyl-4-ol], the “% Change from Control” value in test [1] was -28%. Moreover, the IC50 on Human recombinant PTP1B is 740 nM.
Take `O=C(O)[C@@H](Cc1ccccc1)Oc1c(Br)cc(-c2ccc(-c3c(Cc4ccccc4)sc4ccccc34)cc2)cc1Br` [Example 37, (2R)-2-[4'-(2-Benzyl-benzo[b]thiophene-3-yl)-3,5-dibromo-biphenyl-4-yloxy]-3-phenyl-propionic acid]: the IC50 in test [1] came out at 36800 nM; at Human recombinant PTP1B, 25 nM.
